The record followed here is patent publication US20240174727A1, “LONG-ACTING NATRIURETIC PEPTIDES AND USES THEREOF” (Eli Lilly and Company, priority 2022, published 2024).

Like-named read-outs stand apart in the source and are kept apart here. Numbered stars: 1 amine (or outer) side, 2 acyl side, 3 side chain; on linkers, the order of the positions; unused ones are H or OH. Bridge positions count the residues as written; N and C are the ends. Square brackets hold non-standard residues; d marks the D form. Peptide text beside a SMILES is read from it. * marks the point of attachment. C20 diacid = O=C(O)CCCCCCCCCCCCCCCCCCC(=O)*; γGlu = O=C(O)[C@H](CCC(=O)[*:2])N[*:1]; 4Pal = N[C@@H](Cc1ccncc1)C(=O)O

The assay deals with T1, human NPRA (Homo sapiens, UniProt P16066).
T1 construct: Full-Length cDNA Cloning and Generation of Cell Lines Overexpressing Natriuretic Peptide Receptors (NPRs); expressed in transfected cells; host or cells: Jump-in T-Rex HEK293 cells, pJTI R4 CMV-TO MCS pA vector, tetracycline induction
T1 sequence (P16066 33-1061): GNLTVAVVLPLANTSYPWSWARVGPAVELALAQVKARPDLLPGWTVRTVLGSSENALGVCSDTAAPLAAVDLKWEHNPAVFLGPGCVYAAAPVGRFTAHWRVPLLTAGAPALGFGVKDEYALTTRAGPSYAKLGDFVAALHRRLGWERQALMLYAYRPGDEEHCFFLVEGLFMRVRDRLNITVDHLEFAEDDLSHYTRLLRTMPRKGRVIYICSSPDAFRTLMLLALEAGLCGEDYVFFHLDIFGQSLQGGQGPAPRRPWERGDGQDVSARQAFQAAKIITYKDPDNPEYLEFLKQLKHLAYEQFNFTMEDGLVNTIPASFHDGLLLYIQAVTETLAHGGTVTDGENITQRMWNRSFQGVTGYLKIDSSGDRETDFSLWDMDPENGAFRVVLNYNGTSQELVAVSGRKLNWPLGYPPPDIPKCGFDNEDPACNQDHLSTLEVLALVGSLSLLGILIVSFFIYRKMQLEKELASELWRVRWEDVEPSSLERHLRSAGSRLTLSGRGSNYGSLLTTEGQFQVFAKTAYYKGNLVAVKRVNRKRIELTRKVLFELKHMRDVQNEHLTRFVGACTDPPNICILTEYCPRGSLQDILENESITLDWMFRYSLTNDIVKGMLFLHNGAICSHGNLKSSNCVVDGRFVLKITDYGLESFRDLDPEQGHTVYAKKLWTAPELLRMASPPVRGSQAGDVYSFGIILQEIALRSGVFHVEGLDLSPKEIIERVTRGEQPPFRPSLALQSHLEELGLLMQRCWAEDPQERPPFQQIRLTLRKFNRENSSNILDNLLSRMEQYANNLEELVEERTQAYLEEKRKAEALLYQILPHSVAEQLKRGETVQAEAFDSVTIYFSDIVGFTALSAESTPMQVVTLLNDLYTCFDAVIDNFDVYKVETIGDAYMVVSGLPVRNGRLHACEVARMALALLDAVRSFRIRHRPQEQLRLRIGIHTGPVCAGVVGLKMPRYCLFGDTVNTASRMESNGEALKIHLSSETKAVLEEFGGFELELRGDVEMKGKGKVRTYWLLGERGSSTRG
The assay is described as follows: Human NPRA cGMP activity assay (HTRF) in HEK293 cells overexpressing NPRA. Type of assay: cell-based. The method, then: All sequences were verified by full-length sequencing performed by ACGT DNA Sequencing Services (Wheeling, IL). The target cDNA was cloned into pJTI R4 CMV-TO MCS pA vector and then co-transfected with pJT1R4 Int vector into Jump-in™ T-Rex™ HEK293 cells for mammalian inducible expression using Jump-in™ T-Rex™ HEK293 kit and Lipofectamine LTX and Plus Reagent following manufacturer's protocols, as briefly described below.
Jump-in™ T-Rex™ HEK293 cells were plated in a BioCOAT® poly-D-lysine coated 6-well plate (Becton Dickinson, cat no. 354413) at 1 million cells/well in 2 mL culture medium and incubated for 18 h at 37° C. and 5% CO2 to 50-70% confluence. A cDNA mix was made in a 50 mL tube by adding 1.5 μg target cDNA, 1.5 μg pJT1R4 Int vector, 3 μL Plus Reagent, and 300 μL Opti-MEM I sequentially into the tube. A reagent mix was made in a separate 50 mL tube by adding 7.5 μL Lipofectamine LTX into 300 μL Opti-MEM I. The mixtures were incubated for 5 min at room temperature. The cDNA mix was then transferred into the reagent mix, mixed well, and incubated for additional 30 min at room temperature. A 500 μL of cDNA/Lipofectamine complex was then transferred to the wells of the cell plate in which the culture medium was changed to 2 mL of transfection medium containing DMEM with 4.5 g/L D-glucose supplemented with 10% FBS-HI and 20 mM HEPES. Transfected cells were cultured for 48 h in an incubator at 37° C. and 5% CO2. A subclone or pool from each overexpressing cell line was maintained in culture medium with the addition of 2 mg/mL G418 sulfate for the clone selection based on its built-in resistance to G418 sulfate for at least 3 weeks with medium changed every 2-3 days.
NPRs were overexpressed in T-Rex™ HEK293 cells following the induction with 300 ng/mL tetracycline in culture medium for 48 h. Induced cell lines in an exponential growth phase were treated with 0.05% trypsin-EDTA for a few seconds at room temperature, harvested in cell medium containing FBS to neutralize the trypsin, counted, and cryopreserved at the density of 2 million cells/mL in cell preservation solution containing FBS-HI with 5% DMSO. Cryopreserved cells were stored at −80° C. for a few days prior to transferring to a liquid nitrogen tank. Induced cell lines were then used for suspension assays to measure the activity of polypeptides to stimulate cGMP production in cGMP assays or for the preparation of cell membranes to measure the binding activity of polypeptides in competitive radioligand binding assays, as described below.
Test polypeptides were added starting at 10 μM concentration and at 10-fold decreasing concentrations to obtain 8-point concentration-response curves (i.e., 10 μM to 1 pM). The quantity of cGMP generated was detected using HTRF® technology and normalized to maximum amount produced by 100 nM amidated rat ANP and the minimum amount produced by assay buffer. Detailed steps are outlined below.
Stock solutions of test polypeptides (2 mM) dissolved in DMSO were first diluted 100-fold in assay buffer containing HBSS with Ca^2+ and Mg^2+, 5 mM HEPES, 0.5 mM IBMX, and 0.1% BSA or 0.1% casein (pH 7.4). The polypeptides were further serially diluted in 1:10 dilution steps in assay buffer containing 0.1% BSA or 0.1% casein to generate 8-point 2× working stock solutions ranging from 20 μM to […].
A 10 μL cell suspension containing 4000 cells was plated in Costar® half-area white opaque 96-well plates (Corning, cat no. 3693). Then 10 μL of assay buffer (basal activity), 200 nM of amidated rat ANP (maximum activity) or 2× working stock solutions of test polypeptides were transferred into the plate. Final concentration of DMSO in each well was 0.5%. The plate was shaken for 15 sec and then incubated for 40 min at room temperature.
The cGMP generated was measured using cGMP kit following the manufacturer's directions, as described below.
A general note: TR-FRET usually uses a lanthanide donor and a delayed reading to cut background.

Where [1] appears, read: cGMP Assay (EC50, pM) w/Casein hNPRA, assay buffer with 0.1% casein.

Consider `CC[C@H](C)[C@@H]1NC(=O)[C@H](CCCNC(=N)N)NC(=O)[C@H](CC(=O)O)NC(=O)[C@H]([C@@H](C)CC)NC(=O)[C@H](CCCNC(=N)N)NC(=O)CNC(=O)CNC(=O)[C@H](Cc2ccccc2)NC(=O)[C@@H](NC(=O)[C@H](CO)NC(=O)[C@H](CO)NC(=O)[C@H](CCCNC(=N)N)NC(=O)[C@H](CCCNC(=N)N)NC(=O)[C@H](Cc2ccncc2)NC(=O)[C@H](CO)NC(=O)CNC(=O)[C@H](CCCCN)NC(=O)[C@H](CCC(=O)O)NC(=O)[C@H](CCCCN)NC(=O)[C@H](CCC(=O)O)NC(=O)[C@H](CCCCN)NC(=O)[C@H](CCC(=O)O)NC(=O)CC[C@H](NC(=O)CCCCCCCCCCCCCCCCCCC(=O)O)C(=O)O)CSCSC[C@@H](C(=O)N2CCC[C@H]2C(=O)N[C@@H](CO)C(=O)N[C@@H](Cc2ccccc2)C(=O)N[C@@H](CCCNC(=N)N)C(=O)N[C@@H](Cc2c[nH]cn2)C(=O)NCC(=O)NCC(=O)N2CCC[C@H]2C(=O)N[C@@H](CO)C(=O)N[C@@H](CO)C(=O)NCC(=O)N[C@@H](C)C(=O)N2CCC[C@H]2C(=O)N2CCC[C@H]2C(=O)N2CCC[C@H]2C(=O)N[C@@H](CO)C(N)=O)NC(=O)CNC(=O)[C@H](CC(C)C)NC(=O)CNC(=O)[C@H](CO)NC(=O)[C@H](CCC(N)=O)NC(=O)[C@H](Cc2c[nH]cn2)NC(=O)CNC1=O` [Example 2], for which the EC50 under setting [1] was 1020 pM.

Under setting [1], “{C20 diacid-γGlu}-EKEKEKGEKGRSSCFGGRIDRIGHYSGLGCPSLRHGGPSSGAPPPS-NH2 (disulfide 14-30) [Example 51]” registered an EC50 of 361 pM.

For `CC[C@H](C)[C@@H]1NC(=O)[C@H](CCCNC(=N)N)NC(=O)[C@H](CC(=O)O)NC(=O)[C@H]([C@@H](C)CC)NC(=O)[C@H](CCCNC(=N)N)NC(=O)CNC(=O)[C@H](Cc2c[nH]cn2)NC(=O)[C@H](Cc2ccccc2)NC(=O)[C@@H](NC(=O)[C@H](CO)NC(=O)[C@H](CO)NC(=O)[C@H](CCCNC(=N)N)NC(=O)[C@H](CCCNC(=N)N)NC(=O)[C@H](Cc2c[nH]cn2)NC(=O)[C@H](CO)NC(=O)CNC(=O)[C@H](CCCCN)NC(=O)[C@H](CCC(=O)O)NC(=O)[C@H](CCCCN)NC(=O)[C@H](CCC(=O)O)NC(=O)[C@H](CCCCN)NC(=O)[C@H](CCC(=O)O)NC(=O)CC[C@H](NC(=O)CCCCCCCCCCCCCCCCCCC(=O)O)C(=O)O)CSSC[C@@H](C(=O)N[C@@H](CC(N)=O)C(=O)N[C@@H](CO)C(=O)N[C@@H](Cc2ccccc2)C(=O)N[C@@H](CCCNC(=N)N)C(=O)N[C@@H](Cc2c[nH]cn2)C(N)=O)NC(=O)CNC(=O)[C@H](CC(C)C)NC(=O)CNC(=O)[C@H](CO)NC(=O)[C@H](CCC(N)=O)NC(=O)[C@H](C)NC(=O)[C@H](Cc2c[nH]cn2)NC1=O` [Example 16] ({C20 diacid-γGlu}-EKEKEKGSHRRSSCFHGRIDRIHAQSGLGCNSFRH-NH2; disulfide 14-30), the EC50 (assay buffer with 0.1% casein, read-out: cGMP Assay (EC50, pM) w/Casein hNPRA) was found to be 807 pM.

For `CC[C@H](C)[C@@H]1NC(=O)[C@H](CCCNC(=N)N)NC(=O)[C@H](CC(=O)O)NC(=O)[C@H]([C@@H](C)CC)NC(=O)[C@H](CCCNC(=N)N)NC(=O)CNC(=O)[C@H](Cc2ccncc2)NC(=O)[C@H](Cc2ccccc2)NC(=O)[C@@H](NC(=O)[C@H](CO)NC(=O)[C@H](CO)NC(=O)[C@H](CCCNC(=N)N)NC(=O)[C@H](CCCNC(=N)N)NC(=O)[C@H](CC(C)C)NC(=O)[C@H](CO)NC(=O)CNC(=O)[C@H](CCCCN)NC(=O)[C@H](CCC(=O)O)NC(=O)[C@H](CCCCN)NC(=O)[C@H](CCC(=O)O)NC(=O)[C@H](CCCCN)NC(=O)[C@H](CCC(=O)O)NC(=O)CC[C@H](NC(=O)CCCCCCCCCCCCCCCCCCC(=O)O)C(=O)O)CSSC[C@@H](C(=O)N[C@@H](CC(N)=O)C(=O)N[C@@H](CO)C(=O)N[C@@H](Cc2ccccc2)C(=O)N[C@@H](CCCNC(=N)N)C(=O)N[C@@H](Cc2ccc(O)cc2)C(N)=O)NC(=O)CNC(=O)[C@H](CC(C)C)NC(=O)CNC(=O)[C@H](CO)NC(=O)[C@H](CCC(N)=O)NC(=O)[C@H](C)NC(=O)CNC1=O` [Example 13] ({C20 diacid-γGlu}-EKEKEKGSLRRSSCF[4Pal]GRIDRIGAQSGLGCNSFRY-NH2; disulfide 14-30), the EC50 (assay buffer with 0.1% BSA, read-out: cGMP Assay (EC50, pM) w/BSA hNPRA) was 145000 pM.
